“Also recorded” adds a separate entry of the source.
Experiments:
Type in all cases: cell-based, human
[1] = tested on: NGLY1 deficient fibroblasts; experiment: Cell viability by Calcein AM in mitochondrial stressor media; conditions: NGLY-1 deficient fibroblasts from three individuals; +PT1 vs −PT1; FIG. 2E
Experimental: (§1) Fibroblasts previously derived from four patients with primary mitochondrial disease (Surf1, Complex I, Cox10, Polg), three patients with NGLY1 deficiency and four normal controls were used for the study. All samples were obtained with informed consent and approved by the Stanford IRB. Fibroblasts were maintained in DMEM medium containing 8.3 mM glucose and supplemented with 10% fetal bovine serum (FBS)(Fisher Scientific), 1% Penicillin-Streptomycin (10,000 U/mL)(Life Technologies), 1% glutaMAX (Life Technologies), 1% uridine (5 mg/ml) and 1% pyruvate (11 mg/ml) at 37° C., 5% CO2.
(§2) For the screening of various compounds, 15×10^3 cells/500 ul media were seeded in quadruplets on 24 well microtiter plates. The following day, the medium was removed, wells washed with PBS and replaced with a mitochondrial stressor media containing DMEM, 1% Penicillin-Streptomycin (10,000 U/mL)(Life Technologies), 10% FCS (Fisher Scientific), 1 mM Galactose (Sigma Aldrich), and 25 μM sodium azide with or without the following compounds: 1 mM AICAR (Medchem Express), 1 mM Metformin (Sigma Aldrich), 100 μM PT1 (Santa Cruz Biotechnology), 100 μM A-769662 (Medchem Express), 100 μM C24 (Medchem Express). Following treatment with the various compounds, tissue cultures were analyzed for growth, oxygen consumption rate, and ATP levels.
(§3) Methods: Cell growth was measured by a fluorometric method using Calcein AM (Anaspec). Mitochondrial stressor media was removed, wells washed with PBS and then incubated with 500 ul/well of 800 nM Calcein AM in PBS for 30 min at 37 C, 5% CO2. Cell viability was measured by values obtained using a 485 nm excitation with the Flouroskan Ascent Microplate Fluorometer (Thermo Scientific).

CI-deficient fibroblasts = experiment: as above; conditions: FIG. 2C
Experimental: as §1, §2, §3

[2] = tested on: NGLY1 deficient fibroblasts; experiment: ATP levels, CellTiter-Glo ATP Assay; conditions: PT1 48 hrs vs DMSO
Experimental: (§4) Methods: SURF1, POLG, and NGLY1 patient cells were supplemented with PT1 or DMSO (untreated control) for 48 hrs (n=3) and ATP levels measured by the CellTiter-Glo ATP Assay or for 72 hrs (n=3) and ROS levels were measured by the CellROX Deep Red Flow Cytometry Assay. Results were normalized to total protein concentration. Data are represented as the mean±standard error of the mean. Statistical significance was measured to p<0.05.

[3] = tested on: POLG deficient fibroblasts; experiment: ATP levels, CellTiter-Glo ATP Assay; conditions: PT1 48 hrs vs DMSO
Experimental: as §4

[4] = tested on: SURF1 deficient fibroblasts; experiment: ATP levels, CellTiter-Glo ATP Assay; conditions: PT1 48 hrs vs DMSO
Experimental: as §4

[5] = tested on: NGLY1 deficient fibroblasts; experiment: Lipofuscin levels; conditions: FIG. 8B
[6] = tested on: NGLY1 deficient fibroblasts; experiment: ROS levels, CellROX Deep Red Flow Cytometry Assay; conditions: PT1 72 hrs vs DMSO
Experimental: as §4

[7] = tested on: POLG deficient fibroblasts; experiment: ROS levels, CellROX Deep Red Flow Cytometry Assay; conditions: PT1 72 hrs vs DMSO
Experimental: as §4

[8] = tested on: SURF1 deficient fibroblasts; experiment: ROS levels, CellROX Deep Red Flow Cytometry Assay; conditions: PT1 72 hrs vs DMSO
Experimental: as §4

[9] = tested on: SURF1-deficient fibroblasts; experiment: Cell viability by Calcein AM in mitochondrial stressor media; conditions: SURF1-deficient fibroblasts; FIG. 2A
Experimental: (§5) Fibroblasts previously derived from four patients with primary mitochondrial disease (Surf1, Complex I, Cox10, Polg), three patients with NGLY1 deficiency and four normal controls were used for the study. All samples were obtained with informed consent and approved by the Stanford IRB. Fibroblasts were maintained in DMEM medium containing 8.3 mM glucose and supplemented with 10% fetal bovine serum (FBS)(Fisher Scientific), 1% Penicillin-Streptomycin (10,000 U/mL)(Life Technologies), 1% glutaMAX (Life Technologies), 1% uridine (5 mg/ml) and 1% pyruvate (11 mg/ml) at 37° C., 5% CO2. For the screening of various compounds, 15×10^3 cells/500 ul media were seeded in quadruplets on 24 well microtiter plates. The following day, the medium was removed, wells washed with PBS and replaced with a mitochondrial stressor media containing DMEM, 1% Penicillin-Streptomycin (10,000 U/mL)(Life Technologies), 10% FCS (Fisher Scientific), 1 mM Galactose (Sigma Aldrich), and 25 μM sodium azide with or without the following compounds: 1 mM AICAR (Medchem Express), 1 mM Metformin (Sigma Aldrich), 100 μM PT1 (Santa Cruz Biotechnology), 100 μ[…] Express). Following treatment with the various compounds, tissue cultures were analyzed for growth, oxygen consumption rate, and ATP levels. Methods: Cell growth was measured by a fluorometric method using Calcein AM (Anaspec). Mitochondrial stressor media was removed, wells washed with PBS and then incubated with 500 ul/well of 800 nM Calcein AM in PBS for 30 min at 37 C, 5% CO2. Cell viability was measured by values obtained using a 485 nm excitation with the Flouroskan Ascent Microplate Fluorometer (Thermo Scientific).

[10] = tested on: COX10-deficient fibroblasts; experiment: as above; conditions: FIG. 2B
Experimental: as §5

[11] = tested on: POLG-deficient fibroblasts; experiment: as above; conditions: FIG. 2D
Experimental: as §5

With `Cc1cc(-c2ccc(C=C3SC(=S)N(c4ccc(Cl)c(C(=O)O)c4)C3=O)o2)c([N+](=O)[O-])cc1C` [PT1] the improvement in viability [1] was ≤ 60% and up to 60%, the survival / viability (CI-deficient fibroblasts) was “improves survival; also recorded: significantly improved survival” and the “increase in ATP production / content” value [2] was 40%. For the same compound, the “increase in ATP production / content” value [3] was 36%, the “increase in ATP production / content” value [4] was 35% and the “reduction of lipofuscin levels” value [5] was “approximately 36%”. The “reduction in ROS levels” value [6] was 18%, the “reduction in ROS levels” value [7] was 15% and the “reduction in ROS levels” value [8] was 10%. The survival / viability [9] was “largest improvement”, the survival / viability [10] was “improves survival; also recorded: significantly improved survival” and the survival / viability [11] was “improves survival; also recorded: significantly improved survival”.

From US12377077B2, “Methods and formulations to treat mitochondrial dysfunction” (The Board of Trustees of the Leland Stanford Junior …, priority 2018, dated 2025)
